Consider four compounds from US8563545B2, “Compound useful for the treatment of degenerative and inflammatory diseases” (Galapagos NV, priority 2009, dated 2013).

A short description of data set [1]: Microsomal stability, rat. It is filed as in vitro ADME. The conditions noted are these: rat liver microsomes, 3 μM compound. As for the experimental part: (§1) A 10 mM stock solution of compound in DMSO was diluted 1000 fold in a 182 mM phosphate buffer pH7.4 in a 96 deep well plate (Greiner, Cat no. 780285) and pre-incubated at 37° C. 40 μL of deionised water was added to a well of a polypropylene Matrix 2D barcode labelled storage tube (Thermo Scientific) and pre-incubated at 37° C.
(§2) A Glucose-6-phophate-dehydrogenase (G6PDH) working stock solution was prepared in 182 mM phosphate buffer pH7.4 and placed on ice before use. A co-factor containing MgCl2, glucose-6-phosphate and NADP+ was prepared in deionised water and placed on ice before use.
(§3) A final working solution containing liver microsomes (Xenotech) of a species of interest (human, mouse, rat, dog), previously described G6PDH and co-factors was prepared and this mix was incubated for no longer than 20 minutes at room temperature.
(§4) 30 μL of the pre-heated compound dilution was added to 40 μL of pre-heated water in the Matrix tubes and 30 μL, of the microsomal mix was added. Final reaction concentrations were 3 μM compound, 1 mg microsomes, 0.4 U/mL GDPDH, 3.3 mM MgCl2, 3.3 mM glucose-6-phosphate and 1.3 mM NADP+.
(§5) To measure percentage remaining of compound at time zero MeOH or ACN was added (1:1) to the well before adding the microsomal mix. The plates were sealed with Matrix Sepra Seals™ (Matrix, Cat. No. 4464) and shaken for a few seconds ensure complete mixing of all components.
(§6) The samples which were not stopped are incubated at 37° C., 300 rpm and after 1 hr of incubation the reaction was stopped with MeOH or ACN (1:1).
(§7) After stopping the reaction the samples were mixed and placed on ice for 30 min to precipitate the proteins. The plates were then centrifuged 30 min at 1200 rcf at 4° C. and the supernatant was transferred to a 96 v-bottom PP plate (Greiner, 651201) for analysis on LCMS.
(§8) These plates were sealed with sealing mats (MA96RD-04S) of www.kinesis.co.uk and samples were measured at room temperature on LCMS (ZQ 1525 from Waters) under optimized conditions using Quanoptimize to determine the appropriate mass of the parent molecule.
(§9) The samples were analyzed on LCMS with a flow rate of 1 mL/min. Solvent A was 15 mM ammonia and solvent B was methanol or acetonitrile, depending on the stop solution used. The samples were run under positive ion spray on an XBridge C18 […] (2.1×30 mm) column, from Waters.
(§10) Peak area from the parent compound at time 0 was considered to be 100% remaining. The percentage remaining after 1 hr incubation was calculated from time 0 and was calculated as the percentage remaining. The solubility of the compound in the final test concentration in buffer is inspected by microscope and results are reported.
(§11) The data on microsomal stability are expressed as a percentage of the total amount of compound remaining after 60 min.

Data set [2] can be described thus: Microsomal stability, human. It is filed as in vitro ADME. The following applies: human liver microsomes, 3 μM compound. The procedure: as §1, §2, §3, §4, §5, §6, §7, §8, §9, §10, §11
Data set [3] in a line: Plasma protein binding (equilibrium dialysis), rat. The following applies: 10 μM, 4 hrs at 37° C. In kind it is in vitro ADME. As for the experimental part:
A 10 mM stock solution of the compound in DMSO was diluted with a factor 5 in DMSO. This solution was further diluted in freshly thawed human, rat, mouse or dog plasma (BioReclamation INC) with a final concentration of 10 μM and final DMSO concentration of 0.5% (5.5 μL in 1094.5 μL plasma in a PP-Masterblock 96 well (Greiner, Cat no. 780285))
A Pierce Red Device plate with inserts (ThermoScientific, Cat no. 89809) was prepared and filled with 750 μL PBS in the buffer chamber and 500 μL of the spiked plasma in the plasma chamber. The plate was incubated for 4 hrs at 37° C. while shaking at 230 rpm. After incubation, 120 μL of both chambers was transferred to 360 μL acetonitrile in a 96-well round bottom, PP deep-well plates (Nunc, Cat no. 278743) and sealed with an aluminum foil lid. The samples were mixed and placed on ice for 30 min. This plate was then centrifuged 30 min at 1200 rcf at 4° C. and the supernatant was transferred to a 96 v-bottom PP plate (Greiner, 651201) for analysis on LCMS.
The plate is sealed with sealing mats (MA96RD-04S) of www.kinesis.co.uk and samples are measured at room temperature on LCMS (ZQ 1525 from Waters) under optimized conditions using Quanoptimize to determine the appropriate mass of the molecule.
The samples were analyzed on LCMS with a flow rate of […]. Solvent A was 15 mM ammonia and solvent B was acetonitrile. The sample was run under positive ion spray on an XBridge C18 3.5 μM (2.1×30 mm) column, from Waters. The solvent gradient has a total run time of 2 minutes and ranges from 5% B to 95% B.
Peak area from the compound in the buffer chamber and the plasma chamber are considered to be 100% compound.

Data set [4] is described as follows: Pharmacokinetic study in rodents. It is filed as in vivo, rat. The conditions noted are these: for F: PO 5 mg/kg vs IV 1 mg/kg; for Cmax: read-out: C0 or Cmax; for AUC: read-out: AUC (0-z); for Vd: read-out: Vss; for AUC(0-t): read-out: AUC (0-24 h). As for the experimental part: Sprague-Dawley rats (male, 5-6 weeks old) were obtained from Janvier (France). Rats were acclimatized for at least 7 days before treatment and were kept on a 12 hr light/dark cycle (0700-1900). Temperature was maintained at approximately 22° C., and food and water were provided ad libitum. […] After the surgery, rats were housed individually. Rats were deprived of food for at least 16 hours before oral dosing and 6 hours after. Water was provided ad libitum.
Test compounds were orally dosed as a single esophageal gavage at 5 mg/kg under a dosing volume of 5 ml/kg and intravenously dosed as a bolus via the caudal vein at 1 mg/kg under a dosing volume of 5 mL/kg. Each group consisted of 3 rats. […] For compound 11, blood samples were collected at the retro-orbital sinus with lithium heparin as anti-coagulant at the following time points 0.25, 1, 3 and 6 hrs (oral route). Whole blood samples were centrifuged at 5000 rpm for 10 min and the resulting plasma samples were stored at −20° C. pending analysis.
Plasma concentrations of each test compound were determined by an LC-MS/MS method in which the mass spectrometer was operated in positive electrospray mode.
Pharmacokinetic parameters were calculated using Winnonlin® (Pharsight®, United States).

The mark [5] stands for this setting: male, Sprague-Dawley, rat, plasma, po, 5 mg/kg.
[6] abbreviates: male, plasma, Sprague-Dawley rat, IV 1 mg/kg.
Setting [7] is: male, plasma, Sprague-Dawley rat, IV 1 mg/kg (C0).
[8] abbreviates: male, plasma, Sprague-Dawley rat, PO 5 mg/kg.

Read-outs that look alike come from different tables or passages of the source.

In the case of `O=C(Nc1nc2cccc(-c3ccc(C(=O)N4CCS(=O)(=O)CC4)cc3)n2n1)C1CC1` [Compound 10, Cyclopropanecarboxylic acid {5-[4-(1,1-dioxo-1-thiomorpholine-4-carbonyl)-phenyl]-[1,2,4]triazolo [1,5-a]pyridin-2-yl}-amide], the “percentage of compound remaining after 60 min, Rat” value in data set [1] stood at 89%. The “percentage of compound remaining after 60 min, Human” value in data set [2] turned out to be 102%. The “percentage bound to plasma, Rat” value in data set [3] was found to be 51%.
Take `O=C(Nc1nc2cccc(-c3ccc(CN4CCS(=O)(=O)CC4)cc3)n2n1)C1CC1` [Compound 1, Cyclopropanecarboxylic acid {5-[4-(1,1-dioxo-1-thiomorpholin-4-ylmethyl)-phenyl]-[1,2,4]triazolo [1,5-a]pyridin-2-yl}-amide]: the “percentage of compound remaining after 60 min, Rat” value in data set [1] turned out to be 65.6%. Further, the F in data set [4] (Sprague-Dawley rat) is 45%. In addition, the maximum concentration (Cmax) in data set [4] (setting [5]) worked out at 310 ng/mL. In data set [4] (setting [6]), the clearance was 22.5 mL/min/kg, the AUC stood at 722 ng·h/mL and the Vd amounted to 1.76 L/kg. Further, in data set [4] (setting [7]), the maximum concentration (Cmax) was found to be 1410 ng/mL. Also, in data set [4] (setting [8]), the Tmax was determined as 132 min, the AUC(0-t) was found to be 1680 ng·h/mL and the AUC came to 1430 ng·h/mL. In data set [2], the “percentage of compound remaining after 60 min, Human” value turned out to be 87.2%. Also, the “percentage bound to plasma, Rat” value in data set [3] is on record as 65.7%.
For the compound `O=C(Nc1nc2cccc(-c3ccc(CN4CCOCC4)cc3)n2n1)C1CC1` [Compound 2, N-(5-(4-(morpholinomethyl)phenyl)-[1,2,4]triazolo[1,5-a]pyridin-2-yl)cyclopropanecarboxamide], the “percentage of compound remaining after 60 min, Rat” value in data set [1] was found to be 38%. Besides, the Cl in data set [4] (Sprague-Dawley rat, IV 1 mg/kg) amounted to 2.12. In data set [4] (Sprague-Dawley rat), this compound showed an F of 62%. In data set [4] (setting [5]), the Cmax is 1320 ng/mL. Moreover, the Cmax in data set [4] (setting [7]) turned out to be 863 ng/mL. In addition, in data set [4] (setting [6]), the AUC(0-t) was found to be 474 ng·h/mL, the AUC came out at 470 ng·h/mL and the Vd was 1.46 L/kg. Also, in data set [4] (setting [8]), the Tmax was 19.8 min, the AUC(0-t) came out at 1460 ng·h/mL and the AUC is 1440 ng·h/mL. The “percentage of compound remaining after 60 min, Human” value in data set [2] worked out at 73%. For the same compound, the “percentage bound to plasma, Rat” value in data set [3] came to 64.5%.
On to `O=C(Nc1nc2cccc(-c3ccc(CN4CCC(F)(F)CC4)cc3)n2n1)C1CC1` [Compound 11, Cyclopropanecarboxylic acid {5-[4-(4,4-difluoro-piperidin-1-ylmethyl)-phenyl]-[1,2,4]triazolo [1,5-a]pyridin-2-yl}-amide], for which, in data set [1], the “percentage of compound remaining after 60 min, Rat” value is listed as 26%. Besides, the Cmax in data set [4] (setting [5]) is 547 ng/mL. In data set [4] (setting [8]), the time of peak concentration (Tmax) came to 15 min and the AUC turned out to be 690 ng·h/mL. For the same compound, in data set [2], the “percentage of compound remaining after 60 min, Human” value is on record as 51%. For the same compound, in data set [3], the “percentage bound to plasma, Rat” value stood at 76.5%.
